Assays:
[1] = system: B16 mouse melanoma; assay: Lung metastasis model of B16 mouse melanoma; format: in vivo, C57BL/6 mice
Method: Under sterile conditions, […] mouse melanoma cells in logarithmic growth period were cultured, and then prepared as 2.8×10^5/mL of cell suspension, which was inoculated into the tail vein of C57BL/6 mice at 0.2 mL/mouse. Compound 6 was administered to the mice on the next day. Three weeks later, each animal was sacrificed, and the lungs of mice in each group were dissected. The number of metastatic colonies in the lungs of mice was detected and counted, and the average number of tumor colonies in each group was used to calculate the tumor inhibitory rate according to the formula: Tumor inhibitory rate %=[(The average number of colonies in the control group−the average number of colonies in the treatment group)/The average number of colonies in the control group]×100%, The results are shown in Table 16.

[2] = system: human liver cancer QGY7703; assay: Compound 6 combined with T cells, human liver cancer QGY7703 model in NOG mice; format: in vivo; details: 8 × 10^6 T cells sc, compound 6 200 mg/kg ip, or both
Method: Experimental method: QGY7703 tumor cells were washed twice with PBS, and then resuspended with PBS:Matrix (1:1 mixture by volume). The cell concentration was adjusted to 2.5×10^6/mL, and subcutaneously inoculated to the right armpit of experimental animals at 200 μL/mouse, i.e. 5×10^5 cells/mouse. When the tumor grew to about 50 mm^3, the mice were divided into groups for administration.
T cell culture and harvest: PBMCs of donors were activated and expanded in vitro according to the standard operating procedures for T cell culture. The cells in logarithmic growth phase were harvested and suspended in the medium at a moderate dose (2×10^7/mL) for future use.
T cells were administrated by subcutaneous injection, and the injection site was the same as the inoculation site of tumor cells.
The general conditions, body weight, tumor volume, and tumor weight of mice were recorded every 3 days. Based on the status of the tumor, whether EAL was further injected was decided.
The effect of combined medicaments was evaluated based on the Q value calculated by Jin's formula: […]
Ea+b represents the tumor inhibitory rate of the combined medicaments, while Ea and Eb represent the tumor inhibitory rates of medicament A and medicament B, respectively.

`COc1ccc(/C=C(/C(=O)O)c2cc(OC)c(OC)c(OC)c2)cc1O` [Compound 6, (E)-3-(3-hydroxy-4-methoxyphenyl)-2-(3,4,5-trimethoxyphenyl)acrylic acid] was tested, and the “Animal weight (g) End” value ([1]; 40 mg/kg iv × 10qod) was 20.2/25.4 g, the “Metastasis inhibitory rate %” value ([1]; 40 mg/kg iv × 10qod) was 24.11% and the “Number of lung tumor colonies χ ± SD” value ([1]; 40 mg/kg iv × 10qod) was 40.1 ± 9.0. The “Animal weight (g) End” value ([1]; 60 mg/kg iv × 10qod) was 20.1/25.7 g, the “Metastasis inhibitory rate %” value ([1]; 60 mg/kg iv × 10qod) was 29.03% and the “Number of lung tumor colonies χ ± SD” value ([1]; 60 mg/kg iv × 10qod) was 37.5 ± 11.7. For the same compound, the “Animal weight (g) End” value ([1]; 80 mg/kg iv × 10qod) was 19.9/25.7 g, the “Metastasis inhibitory rate %” value ([1]; 80 mg/kg iv × 10qod) was 35.84% and the “Number of lung tumor colonies χ ± SD” value ([1]; 80 mg/kg iv × 10qod) was 33.9 ± 10.8. For the same compound, the “Animal weight (g) End” value ([1]; 120 mg/kg iv × 10qod) was 20.2/25.6 g, the “Metastasis inhibitory rate %” value ([1]; 120 mg/kg iv × 10qod) was 34.14% and the “Number of lung tumor colonies χ ± SD” value ([1]; 120 mg/kg iv × 10qod) was 34.8 ± 13.4. For the same compound, the “Inhibition of metastasis of B16 mouse melanoma, in words” value ([1]; 40-120 mg/kg iv × 10qod) was “inhibit the metastasis of B16 mouse melanoma in a dose-dependent manner”, the “RTV(d 32)” value [2] was 19.62 ± 3.17 and the “Terminal weight” value [2] was 24.5 ± 0.9 g. For the same compound, the “Tumor inhibitory rate %” value [2] was 39.61%.
